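How tested: cells in 96-well plates exposed to compound for 48 hours at five concentrations. At the GI50, growth is halved.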 Active and inactive are the calls of the source. No stated cut-off is given here; in the data, active = GI50 up to about 1.1 µM and inactive = higher.
Tests used:
Test in all cases: growth of human tumour cells (NCI), 48 h
[1] = test system: A549
[2] = test system: HCT-15
[3] = test system: KM12
[4] = test system: NCI-H226
[5] = test system: NCI-H23
[6] = test system: NCI-H460
[7] = test system: NCI-H522
[8] = test system: RXF 393
[9] = test system: SF-295
[10] = test system: SF-539
[11] = test system: SK-MEL-5
[12] = test system: SNB-19
[13] = test system: SNB-75
[14] = test system: UACC-257
[15] = test system: HCC 2998
[16] = test system: OVCAR-5
[17] = test system: SR

Measured: GI50

O=C(NN1C(=O)C(Cl)C1c1cccc(Cl)c1)c1ccccc1O (stereo unspecified)
> 100 µM: [2]
inactive: [1] > 100 µM | [3] > 100 µM | [4] > 100 µM | [5] > 100 µM | [6] > 100 µM | [7] > 100 µM | [8] > 100 µM | [9] 68.4 µM | [10] > 100 µM | [11] > 100 µM | [12] > 100 µM | [13] > 100 µM | [14] > 100 µM

C=C(C)C1CC=C(C)CC1 (stereo unspecified)
891 µM: [2]
inactive: [1] 968 µM | [15] 973 µM | [3] 1020 µM | [4] 830 µM | [5] 933 µM | [6] 968 µM | [7] 989 µM | [16] 968 µM | [8] 982 µM | [9] 925 µM | [10] 899 µM | [11] 849 µM | [12] 906 µM | [13] 865 µM | [17] 889 µM | [14] 927 µM

O=C(CC(=O)c1ccccc1)C(=O)NC12CC3CC(CC(C3)C1)C2
inactive: [1] > 54.1 µM | [15] > 100 µM | [3] > 100 µM | [4] > 100 µM | [5] > 100 µM | [6] > 40.7 µM | [7] > 83.4 µM | [16] > 100 µM | [8] > 31.9 µM | [9] > 100 µM | [10] > 100 µM | [11] > 100 µM | [12] > 100 µM | [13] > 69.7 µM | [17] > 100 µM | [14] > 100 µM
> 37.8 µM: [2]

CC(=O)/C(=C\c1ccccc1)C(=O)Nc1ccccc1
inactive: [1] > 100 µM | [15] > 100 µM | [3] > 100 µM | [4] > 100 µM | [5] > 100 µM | [6] > 100 µM | [7] > 100 µM | [16] > 100 µM | [8] > 100 µM | [9] 44.1 µM | [10] > 100 µM | [11] > 100 µM | [12] > 100 µM | [17] > 100 µM | [14] > 100 µM

Cc1cccc(N2C(=O)C(Cl)=C(Cl)C2=O)c1
> 41.7 µM: [2]
inactive: [1] > 100 µM | [15] > 100 µM | [3] > 100 µM | [4] > 100 µM | [5] > 69.2 µM | [6] > 100 µM | [7] 8.91 µM | [16] > 100 µM | [8] 16.5 µM | [9] > 100 µM | [10] > 100 µM | [11] > 100 µM | [12] > 100 µM | [13] > 100 µM | [17] 18.2 µM | [14] > 100 µM

COc1ccc2c(c1)[n+]([O-])c(-c1ccc(Cl)c(Cl)c1)c(N)[n+]2[O-]
33.3 µM: [2]
inactive: [1] 30.3 µM | [3] 34.3 µM | [4] 45.1 µM | [5] 15.8 µM | [6] 25.1 µM | [7] 14.3 µM | [16] 36.8 µM | [9] 78.3 µM | [10] 23 µM | [11] 16.5 µM | [12] > 100 µM | [13] 44.7 µM | [17] 45 µM | [14] 16.4 µM

N=C(N)NS(=O)(=O)c1ccc(NC(=O)c2cccc3c(N)c4ccccc4nc23)cc1
> 100 µM: [2]
inactive: [1] > 100 µM | [15] > 100 µM | [3] 8.57 µM | [4] > 100 µM | [5] > 100 µM | [6] > 100 µM | [7] > 100 µM | [16] > 100 µM | [8] > 100 µM | [9] > 100 µM | [10] > 100 µM | [11] > 100 µM | [12] 26.7 µM | [13] 96.2 µM | [14] > 100 µM

CCCCCCCCCCCCCS(=O)(=O)NCC(N)=O
> 100 µM: [2]
inactive: [1] > 100 µM | [15] > 100 µM | [3] > 100 µM | [4] > 100 µM | [5] > 100 µM | [6] > 100 µM | [7] > 100 µM | [16] > 100 µM | [8] > 100 µM | [9] > 100 µM | [10] > 100 µM | [11] > 100 µM | [12] > 100 µM | [13] 25.6 µM | [14] > 100 µM

COC(=N)/C(=C1\OC(=N)C(c2ccc(Cl)cc2)=C1O)c1ccc(Cl)cc1
> 100 µM: [2]
inactive: [1] > 100 µM | [15] > 100 µM | [3] > 100 µM | [4] > 100 µM | [5] > 100 µM | [6] > 100 µM | [7] > 100 µM | [16] > 100 µM | [8] > 100 µM | [9] > 100 µM | [10] > 100 µM | [11] > 100 µM | [12] > 100 µM | [13] > 100 µM | [17] > 100 µM | [14] > 100 µM

CCSc1nc2n(c(=S)n1)CCN2C
inactive: [1] 24.5 µM | [15] 16.3 µM | [3] 21.4 µM | [4] 18.6 µM | [6] 21.1 µM | [7] 5.4 µM | [16] 21.4 µM | [8] 7.89 µM | [9] 21.9 µM | [10] 19.2 µM | [11] 15.2 µM | [12] 20.6 µM | [13] 15.5 µM | [17] 7.67 µM | [14] 12.1 µM
17.5 µM: [2]

COc1ccccc1N1C(=O)C2c3[nH]c4ccccc4c3C3CCC(C(C)(C)C)CC3C2C1=O (stereo unspecified)
inactive: [1] > 100 µM | [15] > 100 µM | [4] > 100 µM | [5] > 100 µM | [7] > 100 µM | [8] > 100 µM | [9] > 100 µM | [10] > 100 µM | [11] > 100 µM | [12] > 100 µM | [13] > 100 µM | [17] 97.1 µM | [14] > 100 µM
> 100 µM: [2]

O=C1NC(=O)/C(=N\c2cccc3c(=O)[nH][nH]c(=O)c23)C(c2nc3ccccc3s2)C1=O (stereo unspecified)
inactive: [1] > 100 µM | [15] 89.7 µM | [3] > 100 µM | [4] > 100 µM | [5] > 100 µM | [6] > 100 µM | [7] > 100 µM | [8] > 100 µM | [9] > 100 µM | [11] > 100 µM | [12] > 100 µM | [13] > 100 µM | [14] > 100 µM
> 100 µM: [2]

O=C(CC(=O)N1N=C(n2ccc3ccccc32)CC1c1ccccc1)Nc1cccc(Cl)c1 (stereo unspecified)
> 100 µM: [2]
inactive: [1] > 100 µM | [15] > 100 µM | [3] > 100 µM | [5] > 100 µM | [6] > 100 µM | [7] > 100 µM | [16] > 100 µM | [8] > 100 µM | [9] > 100 µM | [10] > 100 µM | [12] > 100 µM | [13] 60.4 µM | [14] > 100 µM

CC1=C(C(=O)CC(=O)C(=O)Nc2cccc(C)c2C)Sc2ccccc2N1
> 100 µM: [2]
inactive: [1] > 100 µM | [15] > 100 µM | [3] > 100 µM | [4] > 100 µM | [5] > 100 µM | [6] > 100 µM | [7] > 100 µM | [16] > 100 µM | [8] > 100 µM | [9] > 100 µM | [10] > 100 µM | [11] > 100 µM | [12] > 100 µM | [14] > 100 µM

O=C1CC(C2(O)C(=O)Nc3ccc([N+](=O)[O-])cc32)c2ccccc21 (stereo unspecified)
inactive: [1] 62.4 µM | [15] 20.6 µM | [3] 35.4 µM | [4] 14.7 µM | [5] 26.7 µM | [6] 16.3 µM | [7] 11.2 µM | [16] > 100 µM | [8] 24.8 µM | [9] 34.1 µM | [10] 32.5 µM | [11] 27.7 µM | [12] > 100 µM | [13] 39.5 µM | [17] 18.2 µM | [14] 47.1 µM
18.2 µM: [2]

COc1ccc(OC)c(NC(=O)C2=C(C)NC(C)=C(C(=O)Nc3cc(OC)ccc3OC)C2c2ccccc2)c1
inactive: [1] 85.1 µM | [15] > 100 µM | [3] 91.4 µM | [5] > 100 µM | [6] > 100 µM | [7] > 100 µM | [16] > 100 µM | [8] > 100 µM | [9] 80.4 µM | [10] > 100 µM | [11] 51.3 µM | [12] > 100 µM | [13] 22.8 µM | [14] > 100 µM
> 100 µM: [2]

COC(=O)C1[C@H](c2cc(OC)c(OC)c(OC)c2)OC(=O)C1(C(=O)OC)C(=O)c1ccc2c(c1)OCO2 (stereo partly specified)
> 100 µM: [2]
inactive: [1] > 100 µM | [15] > 100 µM | [3] > 100 µM | [4] > 100 µM | [5] > 100 µM | [6] > 100 µM | [7] > 100 µM | [16] > 100 µM | [8] > 100 µM | [9] > 100 µM | [10] > 100 µM | [11] > 100 µM | [12] > 100 µM | [13] > 100 µM | [14] > 100 µM

Cc1c2ccncc2c(C)c2c1[nH]c1ccc(OCC(F)(F)F)cc12
1.05 µM: [2]
active: [17] 0.828 µM
inactive: [1] 1.79 µM | [3] 1.36 µM | [4] 1.83 µM | [5] 1.71 µM | [6] 1.18 µM | [7] 1.65 µM | [16] 1.53 µM | [8] 1.9 µM | [9] 1.63 µM | [10] 1.75 µM | [11] 1.91 µM | [12] 1.64 µM | [13] 2.17 µM | [14] 1.89 µM
